Results as given in patent US20240101528A1, “SUBSTITUTED PYRAZOLO PIPERIDINE CARBOXYLIC ACIDS” (BAYER AKTIENGESELLSCHAFT, priority 2020, published 2024).
Structures can show the parent of a compound that is named as a salt.

Key:
[1] = Pharmacokinetic parameters following intravenous administration in rats; type: in vivo, male Wistar rats; details: intravenous administration
Protocol: (§1) B-5. Determination of Pharmacokinetic Parameters Following Intravenous and Oral Administration
(§2) The pharmacokinetic parameters of the compounds according to the invention were determined in male Wistar rats and/or in female beagles and/or in cynomolgus monkeys and/or in male CD-1 mice. Intravenous administration in the case of mice and rats was carried out by means of a species-specific plasma/DMSO formulation, and in the case of dogs and monkeys by means of a water/PEG400/ethanol formulation. In all species, oral administration of the dissolved substance was performed via gavage, based on a water/PEG400/ethanol formulation.
(§3) An internal standard (which may also be a chemically unrelated substance) was added to the samples of the compounds of the invention, calibration samples and qualifiers, and there followed protein precipitation by means of acetonitrile in excess. Addition of a buffer solution matched to the LC conditions, and subsequent vortexing, was followed by centrifugation at 1000 g. The supernatant was analysed by LC-MS/MS using C18 reversed-phase columns and variable mobile phase mixtures. The substances were quantified via the peak heights or areas from extracted ion chromatograms of specific selected ion monitoring experiments.
(§4) The plasma concentration/time plots determined were used to calculate the pharmacokinetic parameters such as AUC, Cmax, t1/2 (terminal half-life), F (bioavailability), MRT (mean residence time) and CL (clearance), by means of a validated pharmacokinetic calculation program.
(§5) Since the substance quantification was performed in plasma, it was necessary to determine the blood/plasma distribution of the substance in order to be able to adjust the pharmacokinetic parameters correspondingly. For this purpose, a defined amount of substance was incubated in K3 EDTA whole blood of the species in question in a rocking roller mixer for 20 min. After centrifugation at 1000 g, the plasma concentration was measured (by means of LC-MS/MS; see above) and determined by calculating the ratio of the Cblood/Cplasma value.

[2] = Pharmacokinetic parameters following oral administration in rats; type: in vivo, male Wistar rats; details: for F: bioavailability
Protocol: as §1, §2, §3, §4, §5

[3] = target: T1, recombinant guanylate cyclase reporter cell line (Rattus norvegicus, UniProt P20595); test: Effect on a recombinant guanylate cyclase reporter cell line; type: cell-based; details: for MEC: minimum effective concentration; for EC50: half maximal effective concentration
T1 construct: expressed in transfected cells
T1 sequence (P20595 1-619): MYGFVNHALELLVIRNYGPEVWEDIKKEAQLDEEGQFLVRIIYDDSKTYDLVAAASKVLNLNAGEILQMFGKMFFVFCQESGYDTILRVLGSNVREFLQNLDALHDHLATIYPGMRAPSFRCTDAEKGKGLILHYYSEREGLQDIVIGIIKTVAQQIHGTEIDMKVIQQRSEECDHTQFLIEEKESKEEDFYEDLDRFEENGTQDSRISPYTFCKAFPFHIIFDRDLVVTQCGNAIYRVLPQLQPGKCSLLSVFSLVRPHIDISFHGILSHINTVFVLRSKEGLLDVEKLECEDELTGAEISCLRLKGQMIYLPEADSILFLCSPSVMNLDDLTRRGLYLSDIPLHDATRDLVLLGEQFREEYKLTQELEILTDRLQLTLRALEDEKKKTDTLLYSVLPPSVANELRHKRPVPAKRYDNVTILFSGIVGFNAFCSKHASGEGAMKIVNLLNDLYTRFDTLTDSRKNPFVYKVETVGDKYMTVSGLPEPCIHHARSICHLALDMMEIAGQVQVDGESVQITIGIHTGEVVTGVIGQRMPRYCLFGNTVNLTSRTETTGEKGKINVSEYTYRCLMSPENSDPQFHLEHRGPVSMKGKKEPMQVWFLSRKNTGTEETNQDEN
T1 sequence (P19686 1-690 partner): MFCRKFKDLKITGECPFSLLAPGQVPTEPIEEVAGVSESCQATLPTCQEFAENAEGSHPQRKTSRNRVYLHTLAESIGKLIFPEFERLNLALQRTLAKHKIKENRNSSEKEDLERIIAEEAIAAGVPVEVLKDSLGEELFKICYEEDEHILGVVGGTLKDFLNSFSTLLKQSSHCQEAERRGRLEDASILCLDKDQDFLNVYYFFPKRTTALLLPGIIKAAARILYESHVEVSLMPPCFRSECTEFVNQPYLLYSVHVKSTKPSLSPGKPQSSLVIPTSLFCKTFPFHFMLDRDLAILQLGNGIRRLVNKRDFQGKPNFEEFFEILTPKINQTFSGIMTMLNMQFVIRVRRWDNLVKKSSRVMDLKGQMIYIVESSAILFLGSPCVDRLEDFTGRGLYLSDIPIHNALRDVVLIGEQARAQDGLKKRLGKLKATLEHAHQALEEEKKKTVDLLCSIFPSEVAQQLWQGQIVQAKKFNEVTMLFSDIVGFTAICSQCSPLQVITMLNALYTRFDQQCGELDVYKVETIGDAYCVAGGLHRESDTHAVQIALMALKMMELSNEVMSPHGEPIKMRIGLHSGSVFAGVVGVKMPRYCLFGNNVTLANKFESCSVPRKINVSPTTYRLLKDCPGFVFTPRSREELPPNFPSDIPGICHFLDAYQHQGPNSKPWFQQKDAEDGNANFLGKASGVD
Protocol: B-1. Effect on a Recombinant Guanylate Cyclase Reporter Cell Line
The cellular activity of the compounds according to the invention was determined using a recombinant guanylate cyclase reporter cell line, as described in F. Wunder et al., Anal. Biochem. 339, 104-112 (2005).

AUCnorm [1] [kg·h/L]	AUCnorm [2] [kg·h/L]	F [2] [%]	MEC [3] [nM]	MRT [2] [h]	EC50 [3] [nM]	SMILES
7.23	4.04	56.1	1.6	–	–	O=C(O)c1cnn(C2CCCN(c3cc(Cl)ccc3-c3ccc(N4CCN(CC(F)(F)F)CC4)cc3)C2)c1C(F)F (single isomer, unassigned; enantiomer 2) [Example 21, 1-[1-[5-Chloro-2-[4-[4-(2,2,2-trifluoroethyl)piperazin-1-yl]phenyl]phenyl]-3-piperidyl]-5-(difluoromethyl)pyrazole-4-carboxylic acid (Enantiomer 2)]
1.23	0.70	58.2	<0.3	–	–	O=C(O)c1cnn(C2CCCN(c3cc(Cl)ccc3-c3ccc(N4CCN(CC5CC5)CC4)cc3)C2)c1C(F)F (single isomer, unassigned; enantiomer 2) [Example 11, 1-(1-{4-Chloro-4′-[4-(cyclopropylmethyl)piperazin-1-yl] [biphenyl]-2-yl}piperidin-3-yl)-5-(difluoromethyl)-1H-pyrazole-4-carboxylic acid hydrochloride (Enantiomer 2)]
0.77	0.63	81.8	–	8.41	–	O=C(O)c1cnn(-c2cccc(-c3cc(Cl)ccc3-c3ccc(N4CCN(CC5CC5)CC4)cc3)n2)c1C(F)(F)F [174 (WO2012/058132), reference compound]
–	–	–	1.0	–	8.3	O=C(O)c1cnn(C2CCCN(c3cc(Cl)ccc3-c3ccc(N4CCN(CC5CC56CC6)CC4)cc3)C2)c1C(F)F (mixture of isomers) [Example 41, 1-[1-[5-Chloro-2-[4-[4-(spiro[2.2]pentan-2-ylmethyl)piperazin-1-yl]phenyl]phenyl]-3-piperidyl]-5-(difluoromethyl)pyrazole-4-carboxylic acid hydrochloride (Diastereomeric mixture 2)]
–	–	–	1.0	–	5.1	O=C(O)c1cnn(C2CCCN(c3cc(Cl)ccc3-c3ccc(N4CCN(CC5CC5(F)F)CC4)cc3)C2)c1C(F)F (single isomer, unassigned; diastereomer 4) [Example 31, 1-{1-[4-Chloro-4′-(4-{[2,2-difluorocyclopropyl]methyl}piperazin-1-yl)[biphenyl]-2-yl]piperidin-3-yl}-5-(difluoromethyl)-1H-pyrazole-4-carboxylic acid hydrochloride (Diastereomer 4)]
–	–	–	1.0	–	2.1	O=C(O)c1cnn(C2CCCN(c3cc(Cl)ccc3-c3ccc(N4CCN(C[C@H]5C[C@H]5F)CC4)cc3)C2)c1C(F)F (single isomer, unassigned; stereoisomer 2) [Example 37]
–	–	–	1.0	–	7.1	O=C(O)c1cnn(C2CCCN(c3cc(Cl)ccc3-c3ccc(N4CCN(CC5CC5C(F)(F)F)CC4)cc3)C2)c1C(F)F (mixture of isomers) [Example 38, 1-{1-[4-Chloro-4′-(4-{[cis-2-(trifluoromethyl)cyclopropyl]methyl}piperazin-1-yl) [biphenyl]-2-yl]piperidin-3-yl}-5-(difluoromethyl)-1H-pyrazole-4-carboxylic acid hydrochloride (Diastereoisomeric Mixture 1)]
–	–	–	1.3	–	13	CCN1CCN(c2ccc(-c3ccc(Cl)cc3N3CCCC(n4ncc(C(=O)O)c4C(F)F)C3)cc2)CC1 (single isomer, unassigned; enantiomer 2) [Example 4, 1-{1-[4-Chloro-4′-(4-ethylpiperazin-1-yl)[biphenyl]-2-yl]piperidin-3-yl}-5-(difluoromethyl)-1H-pyrazole-4-carboxylic acid hydrochloride (Enantiomer 2)]
